Like-named read-outs stand apart in the source and are kept apart here.
Key:
A549 and Capan-1 = test: Expression of median (culture media) p53 in A549 and Capan-1; assay type: cell-based; settings: A549 and Capan-1, FIG. 15B
Procedure: (§1) Also, protease inhibitor (PMSF) and endocytosis inhibitor (Brefeldin A; BFA) were treated into A549 and Capan-1.

[1] = test system: SNAIL-mediated p53 suppression; test: Effect on SNAIL-mediated p53 reduction in transfected cells; assay type: cell-based; settings: SNAIL (or K-Ras) transfected cells
Procedure: Also, the effect of the chemicals on SNAIL-mediated p53 suppression was checked. As shown in FIGS. 10E and 10F, p53 reduction by co-transfection of SNAIL was blocked by treatment of chemicals by #3 and #9.
The reduction of p53 by SNAIL was confirmed in real time (see FIG. 13D). Expression of p53 in culture-media was checked and within 2 hours, the expression of p53 in media was detected (see FIG. 13E). Moreover, p53 was detected in cytosol as a vesicle-like-structure in SNAIL or K-Ras transfected cells, and finally detected in an extracellular region (see FIG. 13F). Meanwhile, SNAIL was located in vesicle of cytosol with p53 (see FIG. 17A).
Since p53 is reduced by vesicle-like transport, p53 expression was checked by disrupting cytoskeleton-network by Nocodazole (Noc). […] Despite of cytoplasmic vesicle-like staining of p53 in Noc-treated cells, cellular morphology was changed differentially from control cells (see FIG. 14B). Noc blocked the p53 reduction (see FIG. 14C). Median p53 was disappeared by Noc-treatment, whereas p53 was accumulated in cytoplasm as vesicle (see FIGS. 14D and 14E). Aph/Noc blocked the reduction of p53, which was not achieved by LMB (FIGS. 14F and 14G).

[2] = test system: K-Ras mutant cancer cell lines HCT116; test: Western blot of p53 and p21 expression in K-Ras mutant HCT116 cells; assay type: cell-based; settings: Homo sapiens, HCT-116, HCT116, 10 μM
Procedure: To confirm whether the compounds prepared according to Examples 1 to 5 are effective for inhibiting SNAIL-p53 binding at cell level, the compound was treated into K-Ras mutant cancer cell lines HCT116 and results were analyzed by western blotting.
Oncogenic K-ras suppresses the p53 activity through SNAIL. In the cell line HCT116, SNAIL is always expressed by K-Ras mutation and bound to p53 to suppress normal activity of p53. If the K-Ras mutant cancer cell line HCT116 is treated with a compound for suppressing SNAIL-p53 binding, p53 is normally activated and more expressed, and target genes of p53 are induced.
First, western blotting was performed to detect expression of p53 and p21, which is a target gene of p53. All cell lines used in the present invention were obtained from ATCC, and maintained in 10% FBS-containing RPMI-1640 or DMEM. Protein was extracted with RIPA buffer solution and a membrane loaded with cell lysate through typical SDS-PAGE and gel transfer method was prepared. After blocking with 5% non-fat dry milk, the membrane was subjected into a typical western blot procedure with an antibody corresponding to each gene. Antibodies used herein were obtained from Cell signaling, SantaCruz. p53 activity was confirmed by expression of p21, which is a target gene of p53.

SNAIL-p53 binding = test: GST pull down assay of SNAIL-p53 binding (Experimental Example 2); design: species or system human; settings: FIG. 21
Procedure: GST pull down assay is a method for identifying a binding degree of two proteins. GST-fused SNAIL protein and p53 recombinant protein were prepared and treated with the compound 5o or 7a to identify a binding degree of GST-SNAIL protein and p53 protein. […] If MDM2 is over-expressed, proteolysis of p53 is induced to suppress apoptosis occurring through target genes of p53, and an […] of cells is induced. Although MDM2 is a representative control factor of p53, MDM2 is not applied to K-Ras mutant disease or mutant p53 containing disease.
To perform GST pull down assay, three human SNAIL fragments (residues 1-90, 91-112, and 113-264) and p53 fragments (1-93 and 93-292) were expressed in E. coli as GST-fusion protein. Each of the fragments was loaded on to GSH-agarose, washed, and then eluted using a buffer containing 20 mM reduced glutathione. The eluted fractions were purified using an anionexchange chromatography (HitrapQ). The recombinant human p53 protein (residues 94-292) was expressed in E. coli using the vector pET28A which contains a hexa-histidine tag at the C terminus. The p53 protein including the hexa-histidine tag was purified using Ni-NTA affinity and a size exclusion chromatography (Superdex 200). To confirm the direct binding between p53 and SNAIL, agarose-bead conjugated GST or GST-SNAIL was incubated with His-p539 (histidine-p53) in PBS for 45 minutes at 4° C.. After washing with PBS, the precipitated protein was subjected into SDS-PAGE and western blotting.

[3] = test system: A549 (K-Ras mutant cancer cell line); test: Cell death rate by tryphan blue cell counting, A549; assay type: cell-based; settings: A549 (A546 [sic])
Source text: (§2) To confirm that the p53 induction of the compounds is related to K-Ras, A549 and HCT116, which are K-Ras mutant cancer cell lines, and MKN45, which is K-Ras wild type cancer cell line, were used.

[4] = test system: HCT116 (K-Ras mutant cancer cell line); test: Cell death rate by tryphan blue cell counting, HCT116; assay type: cell-based
[5] = test system: MKN45 (K-Ras wild type cancer cell line); test: Cell death rate by tryphan blue cell counting, MKN45; assay type: cell-based
Source text: as §2

MDA-MB 468 = test: Western blot of p21 expression in mutant p53 MDA-MB 468 cells; assay type: cell-based, human; settings: for Expression ratio of gene to control, p21: DMSO control = 1.0
A549 cells = test: Xenograft in vivo: A549 cells injected intraperitoneally into athymic mouse
Procedure: Athymic mouse was obtained from Daehan Biolink Co. Ltd, and raised under temperature and light conditions (20-23° C., cycle of 12 hours light/12 hours darkness) and fed with sterile diet and water freely. After 2 weeks, 1×10^7 A549 cells were inoculated into the athymic mouse (n=21) by intraperitoneal injection. After 2 weeks, each group was divided into three subgroups and PBS, and 10 mg/kg or 20 mg/kg of the compound 5o were intraperitoneally injected once per week for 10 weeks, and vitality thereof was measured. This animal test was approved by the Animal Protection Committee of Pusan National University, and performed according to a guideline presented by the same.

SNAIL and p53 binding = test: ELISA system for screening SNAIL-p53 binding inhibitors; design: species or system human; settings: His-p53 (93-292) and GST SNAIL
Procedure: To isolate SNAIL-p53 binding inhibitor, ELISA system was prepared. His-p53 (93-292) was immobilized on 96 well plates using 0.5 PFA. After drying and washing, the 96 well plates were incubated with GST SNAIL with 0.1 μM of chemicals (final concentration). After 1 hour incubation, the 96 well plates were washed with TBST and incubated with anti-GST-antibody (1: 10000, 45 min) and anti-mouse-IgG-HRP (1; 50000, 30 min). After washing twice, plates were incubated with a TMB solution and a stop solution. Measurement was performed using an ELISA plate reader.

A549 = test: Location of recombinant p53 in A549 whole cell lysate (endocytosis); assay type: cell-based; settings: A549, FIG. 15C
Procedure: First, A549 and MKN 45 cells were treated with recombinant p53, and their locations were identified. In comparison with control protein (His-lamin A) recovered from media, His-p53 was expressed in whole cell lysate of A549 (FIG. 15A). In addition, His-p53 was completely removed from MKN45 cells and culture media thereof (FIG. 15A).
as §1

K-Ras mutated cells = test: Cell death in K-Ras mutated cells; assay type: cell-based; settings: FIG. 11D
[6] = 10 mg/kg i.p. once per week for 10 weeks
[7] = 20 mg/kg i.p. once per week for 10 weeks

SMILES: O=S(=O)(F)Cc1ccccc1 [PMSF]
- Expression of median p53 (A549 and Capan-1): increased expression of median p53

SMILES: CCC(=C/[C@H](C)C/C=C/C(C)=C/[C@@H](C)C(=O)[C@@H](C)[C@H](O)[C@@H](C)C/C(C)=C/C(=O)O)/C=C/[C@@H]1OC(=O)C=C[C@@H]1C [leptomycin B]
- SNAIL-mediated p53 reduction [1]: did not block the SNAIL-mediated p53 reduction

SMILES: COc1ccc(OC)c2c1C(=O)C=C(SCCC(=O)O)C2=O [Compound 5o, 3-(5,8-dimethoxy-1,4-dioxo-naphthalen-2-ylthio)propanoic acid]
- fold induction at 10 µM ([2]; DMSO control = 1.0, read-out: Protein expression ratio of compound to control, p21): 2.5
- fold induction at 10 µM ([2]; DMSO control = 1.0, read-out: Protein expression ratio of compound to control, p53): 2.6
- Binding between GST-SNAIL protein and p53 (SNAIL-p53 binding): substantially weak
- Cancer cell death rate of compounds with respect to control ([3]; 5 μM): 30 ± 4.5%
- Cancer cell death rate of compounds with respect to control ([3]; 20 μM): 62 ± 1.7%
- Cancer cell death rate of compounds with respect to control ([4]; 5 μM): 35 ± 3.2%
- Cancer cell death rate of compounds with respect to control ([4]; 20 μM): 67 ± 2.5%
- Cancer cell death rate of compounds with respect to control ([5]; 5 μM): 10 ± 2.9%
- Cancer cell death rate of compounds with respect to control ([5]; 20 μM): 18 ± 1.9%
- Expression ratio of gene to control, p21 (MDA-MB 468; MDA-MB 468, 5 μM): 13.5
- Expression ratio of gene to control, p21 (MDA-MB 468; MDA-MB 468, 10 μM): 25.9
- Expression ratio of gene to control, p21 (MDA-MB 468; MDA-MB 468, 20 μM): 31.3
- Expression of p21 (target gene of p53) (MDA-MB 468; p53 mutant-type MDA-MB 468, FIG. 23): strong
- Tumor-caused death (survival) (A549 cells; 10 mg/kg and 20 mg/kg, 10 weeks, FIG. 24): tumor-caused death was prevented
- Tumor development at tumor site A.C (A549 cells; [6]): 3 (regression)
- Tumor development at tumor site Liver (A549 cells; [6]): 0
- Tumor development at tumor site Lung (A549 cells; [6]): 0
- Tumor development at tumor site Pancreas (A549 cells; [6]): 0
- Tumor development at tumor site A.C (A549 cells; [7]): 2 (regression)
- Tumor development at tumor site Liver (A549 cells; [7]): 0
- Tumor development at tumor site Lung (A549 cells; [7]): 0
- Tumor development at tumor site Pancreas (A549 cells; [7]): 0
- Tumor in treated group (A549 cells; FIG. 25): almost no tumor
- Overall anatomical abnormal finding according to weight loss or injection of the compound (A549 cells; FIG. 26): not observed

SMILES: O=c1c(O)c(-c2ccc(O)c(O)c2)oc2cc(O)cc(O)c12 [Quercetin]
- Inhibition of SNAIL and p53 binding (SNAIL and p53 binding): identified as an inhibitor of SNAIL-p53 interaction

SMILES: C[C@H]1CCC/C=C/[C@@H]2C[C@H](O)C[C@H]2[C@H](O)/C=C/C(=O)O1 [Brefeldin A]
- Expression of median p53 (A549 and Capan-1): increased expression of median p53
- Location of recombinant p53 in whole cell lysate (A549): blocked the location of recombinant p53

SMILES: COc1cc(/C=C/C(=O)O)ccc1O [ferulic acid]
- Cell death (K-Ras mutated cells): evoked cell death

SMILES: COC(=O)Nc1nc2ccc(C(=O)c3cccs3)cc2[nH]1 [Nocodazole]
- SNAIL-mediated p53 reduction [1]: blocked the SNAIL or K-Ras mediated p53 reduction

From patent US9400281B2, “Method of screening of therapeutic agents for K-Ras mutant driven cancers” (PUSAN NATIONAL UNIVERSITY INDUSTRY-UNIVERSITY COOPERATION …, priority 2008, dated 2016)
